Two compounds from US20020187538A1, “cDNA clone of (+)- delta-cadinene-8-hydroxylase gene from cotton plants” (priority 2001, published 2002) can be followed below.

The test system of the data set is CYP706B1. Description: (+)-d-cadinene hydroxylase activity assay, inhibitors and cofactor. The class given is biochemical, Gossypium arboreum. The conditions noted are these: for sensitivity to inhibition: qualitative statement, taken as indication of a cytochrome P450. As to the method:
The yeast Saccharomyces cerevisiae strain W(R), which overexpresses the yeast cytochrome P450 reductase when grow on galactose, and the expression vector pYeDP60 were provided by D. Pompon (Pompon et al (1996) Methods Enzymol. 272, 51-64). The cDNA of CYP706B1 was modified by PCR with a 5′-terminal primer 5ç-[…] (sense), in which a Kpn I site was introduced, and a 3′-terminal primer 5ç-[…] (reverse), in which a Sac I site was introduced. PCR was conducted on plasmid DNA by using Pyrobest™ DNA polymerase (TaKaRa). After digestion with the restriction enzymes, the fragment was inserted into pYeDP60. Plasmid DNA was introduced into yeast cells by a LiAc method, transformed yeast cells were then selected, cultured, and induced, and microsomes were prepared following a high density procedure (Pompon et al (1996) Methods Enzymol. 272, 51-64).
The (+)-d-cadinene hydroxylase activity assay was based on a published protocol for monoterpene P450 hydroxylases (Mihaliak et al. (1993) Methods Plant Biochem. 9, 261-279). The radioactive assay was conducted in […] of potassium phosphate buffer (50 mM, pH 7.4) containing 1 mM EDTA (pH 8.0), 0.4 M sucrose, 2 mM DTT, 0.1% BSA, 1 mM NADPH, 5 mM FAD, 5 mM FMN, 4 mM glucose-6-phosphate, 1 unit of glucose-6-phosphate dehydrogenase, […] ^3H-(+)-d-cadinene (32 mCi/mmol) and yeast microsomes (100^˜[…] protein). The reaction was started by adding the microsomes, incubated at 30° C. for 1 hr, and stopped by chilling on ice. The reaction mixture was extracted three times with […] hexane:ethyl acetate (1:1), the extract was filtered through a 0.2 g, 100^˜200 mesh silica gel column in a pasteur pipet, eluted with 1.5 mL hexane:ethyl acetate (1:1), and concentrated to ca […] with an argon stream. The entire sample was subjected to reversed phase HPLC on C18 silica (250×4.6 mm, […] particle diameter) with a gradient of 40:60 to 100:0 acetonitrile/water (v/v) over 60 min followed by 10 min of 100% acetonitrile, flow rate 1 mL/min. Tritium was detected by an on-line liquid scintillation counter (b-RAM, IN/US Systems, Inc., Tampa, Fla.). […]

Consider `Clc1ccc(COC(Cn2ccnc2)c2ccc(Cl)cc2Cl)c(Cl)c1` (stereo not drawn) [miconazole], for which the sensitivity to inhibition result is recorded as “sensitivity to inhibition”. For `[C-]#[O+]` [CO, carbon monoxide], the sensitivity to inhibition entry is listed as “sensitivity to inhibition”. The “inhibition of the hydroxylase activity” value (reaction mixture treated with a slow stream of CO for about 2 min, yeast microsomes containing CYP706B1) stood at 70%.
